The results in this text go back to patent US6740640B2, “Sulfofucosylacylglycerol derivatives and administration thereof as medicaments” (Toyo Suisan Kaisha, Ltd., priority 1999, dated 2004).

In experiment [1] the target is T1, DNA polymerase α (Bos taurus, UniProt A0AAA9TD94).
T1 construct: from tissue; host or cells: bovine thymus
T1 sequence (A0AAA9TD94 1-1441): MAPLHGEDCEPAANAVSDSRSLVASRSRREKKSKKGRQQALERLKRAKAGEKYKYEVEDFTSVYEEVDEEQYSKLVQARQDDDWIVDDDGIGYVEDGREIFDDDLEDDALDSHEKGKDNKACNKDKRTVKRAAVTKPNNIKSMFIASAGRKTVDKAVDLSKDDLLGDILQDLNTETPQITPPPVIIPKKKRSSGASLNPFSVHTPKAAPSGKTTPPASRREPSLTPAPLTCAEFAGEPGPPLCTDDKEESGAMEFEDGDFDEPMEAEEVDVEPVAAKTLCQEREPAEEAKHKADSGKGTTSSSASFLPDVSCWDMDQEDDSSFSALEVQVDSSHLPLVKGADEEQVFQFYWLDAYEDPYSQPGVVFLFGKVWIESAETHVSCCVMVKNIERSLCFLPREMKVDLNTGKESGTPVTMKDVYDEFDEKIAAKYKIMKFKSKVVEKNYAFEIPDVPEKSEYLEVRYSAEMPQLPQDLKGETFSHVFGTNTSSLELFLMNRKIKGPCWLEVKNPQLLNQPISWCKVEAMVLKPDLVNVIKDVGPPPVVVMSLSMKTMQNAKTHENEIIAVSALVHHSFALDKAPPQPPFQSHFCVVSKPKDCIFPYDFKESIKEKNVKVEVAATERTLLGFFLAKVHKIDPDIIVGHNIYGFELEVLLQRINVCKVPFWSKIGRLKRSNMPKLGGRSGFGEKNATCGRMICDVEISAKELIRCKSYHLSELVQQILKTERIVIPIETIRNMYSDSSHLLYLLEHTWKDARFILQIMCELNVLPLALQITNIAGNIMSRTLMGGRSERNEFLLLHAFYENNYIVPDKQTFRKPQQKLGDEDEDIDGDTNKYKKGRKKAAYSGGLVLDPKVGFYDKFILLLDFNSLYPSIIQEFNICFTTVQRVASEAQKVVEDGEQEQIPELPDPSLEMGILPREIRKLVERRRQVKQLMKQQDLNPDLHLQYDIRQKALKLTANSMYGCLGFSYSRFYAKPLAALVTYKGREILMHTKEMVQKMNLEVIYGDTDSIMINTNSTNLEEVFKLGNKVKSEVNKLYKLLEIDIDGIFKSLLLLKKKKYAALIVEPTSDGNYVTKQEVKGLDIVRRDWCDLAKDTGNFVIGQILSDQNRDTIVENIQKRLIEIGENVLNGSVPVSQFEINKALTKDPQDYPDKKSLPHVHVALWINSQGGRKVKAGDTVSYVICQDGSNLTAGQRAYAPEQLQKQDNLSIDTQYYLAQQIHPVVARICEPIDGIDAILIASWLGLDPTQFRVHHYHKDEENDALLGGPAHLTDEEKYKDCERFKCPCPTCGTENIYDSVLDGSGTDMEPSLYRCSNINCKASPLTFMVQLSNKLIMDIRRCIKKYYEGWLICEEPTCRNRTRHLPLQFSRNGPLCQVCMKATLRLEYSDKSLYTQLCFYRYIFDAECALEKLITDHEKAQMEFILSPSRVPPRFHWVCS
The experiment is described as follows: Inhibitory effect against DNA polymerase α ([3H]-dTTP incorporation). Type of experiment: biochemical. The note with it: DNA polymerase α from bovine thymus, 0.05 U, 37° C. for 60 minutes. As for the experimental part:
An assay on inhibitory effect against a DNA polymerase α was carried out in the following manner.
Each mixture was added with a buffer containing inorganic salts for the enzymatic reaction, [^3H]-labeled dTTP and compounds for reaction containing a template DNA strand, and incubated at 37° C. for 60 minutes.
After the enzymatic reaction was quenched, the resultant reaction product was fixed on a dedicated filter and subjected to measurement by a liquid scintillation counter. The amount of enzymatically incorporated dTTP was calculated as a radiation dose (cpm) of [^3H]. Note that, each of the sulfofucosylacylglycerol derivatives is a mixture of the S- and R-configurations with respect to an absolute configuration of the carbon of the 2-position of the glycerol moiety.
The results are shown as IC50 in Table 1 below.

The subject of experiment [2] is Colon cancer cells DLD-1. The experiment is described as follows: Anticancer activity against cultured colon cancer cells (MTT assay). Type of experiment: cell-based. The following applies: Homo sapiens, DLD-1, 48 hour cultivation. As for the experimental part: An assay on anticancer activity against cultured colon cancer cells was carried out in the following manner.
(§1) Colon cancer cells DLD-1 were maintained and subcultured in RPMI 1640 medium (containing 10% calf serum). Each of the test compounds (SFAG1 to SFAG3 shown in Table 1) was suspended and diluted in the medium, and then the cancer cells were cultivated together with the medium in a 96-well plate at 3×10^3 cells/well. After 48 hour cultivation, the MTT assay (Mosmann, T: Journal of Immunological Method, 65, 55-63 (1983)) was carried out to compare survival rates.
The results are shown as IC50 in Table 2 below.
In general terms: Tetrazolium assays rely on reduction of a dye to a coloured formazan, in cell work by metabolically active cells.

Experiment [3] concerns gastric cancer cells NUGC-3. The experiment is described as follows: Anticancer activity against cultured gastric cancer cells (MTT assay). The note with it: Homo sapiens, NUGC-3, 48 hour cultivation. Type of experiment: cell-based. As for the experimental part: as §1
An assay on anticancer activity against cultured gastric cancer cells was carried out in the same manner as in the Assay 2 except that gastric cancer cells NUGC-3 were used instead of the colon cancer cells DLD-1.
The results are shown as IC50 in Table 3 below.

A word on the IC50: it is the concentration at which inhibition is half-maximal. The low end stands for greater potency in that assay, the high end for weaker potency in that assay.

Where a name gives a salt, the structure may show the parent alone.

On to `CCCCCCCCCCCCCCCCCC(=O)OCC(O)CO[C@H]1O[C@H](CS(=O)(=O)[O-])[C@H](O)[C@H](O)[C@H]1O.[Na+]` (stereo partly drawn) [SFAG3, 3-O-(6-deoxy-6-sulfo-α-D-galactopyranosyl)-1-O-stearoyl-glycerol sodium salt], for which the half-inhibitory concentration (IC50) was 8.24 µM in experiment [1], 27.5 µg/mL in experiment [2] and 30.3 µg/mL in experiment [3].

For `CCCCCCCCCCCCCCCC(=O)OCC(O)CO[C@H]1O[C@H](CS(=O)(=O)[O-])[C@H](O)[C@H](O)[C@H]1O.[Na+]` (stereo partly drawn) [SFAG2, 3-O-(6-deoxy-6-sulfo-α-D-galactopyranosyl)-1-O-palmitoyl-glycerol sodium salt], the values for the concentration for half-maximal inhibition (IC50) in experiment [1], in experiment [2] and in experiment [3] were 8.64 µM, 41.5 µg/mL and 41.7 µg/mL, respectively.

`CCCCCCCCCCCCCCCC(=O)OCC(CO[C@H]1O[C@H](CS(=O)(=O)O)[C@H](O)[C@H](O)[C@H]1O)OC(=O)CCCCCCCCCCCCCCC` (stereo partly drawn) [SFAG5, 3-O-(6-deoxy-6-sulfo-α-D-galactopyranosyl)-1,2-di-O-palmitoyl-glycerol sodium salt] had a 50% inhibitory concentration (IC50) in experiment [1] of 0.551 µM.

`CCCCCCCCCCCCCC(=O)OCC(CO[C@H]1O[C@H](CS(=O)(=O)O)[C@H](O)[C@H](O)[C@H]1O)OC(=O)CCCCCCCCCCCCC` (stereo partly drawn) [SFAG4, 3-O-(6-deoxy-6-sulfo-α-D-galactopyranosyl)-1,2-di-O-myristoyl-glycerol sodium salt] gave a half-maximal inhibitory concentration (IC50) in experiment [1] of 0.657 µM.

For the compound `CCCCCCCCCCCCCC(=O)OCC(O)CO[C@H]1O[C@H](CS(=O)(=O)[O-])[C@H](O)[C@H](O)[C@H]1O.[Na+]` (stereo partly drawn) [SFAG1, 3-O-(6-deoxy-6-sulfo-α-D-galactopyranosyl)-1-O-myristoyl-glycerol sodium salt], the IC50 in experiment [1] is 7.63 µM; in experiment [2], 44 µg/mL; in experiment [3] it was 44.3 µg/mL.

Turning to `CCCCCCCCCCCCCCCCCC(=O)OCC(CO[C@H]1O[C@H](CS(=O)(=O)O)[C@H](O)[C@H](O)[C@H]1O)OC(=O)CCCCCCCCCCCCCCCCC` (stereo partly drawn) [SFAG6, 3-O-(6-deoxy-6-sulfo-α-D-galactopyranosyl)-1,2-di-O-stearoyl-glycerol sodium salt], the 50% inhibitory concentration (IC50) in experiment [1] was 0.458 µM.
